Entries after “also recorded” stand apart in the source; their conditions may differ.

In one experiment the target is T1, CHIP28 (Homo sapiens, UniProt P29972).
T1 construct: was comprised of AQP1 (the 28-kDa protein itself and the 35-60-kDa glycosylated protein); from tissue; host or cells: human erythrocytes (blood-bank units; small-scale purifications from freshly drawn whole blood)
T1 sequence (P29972 2-269 limits assumed): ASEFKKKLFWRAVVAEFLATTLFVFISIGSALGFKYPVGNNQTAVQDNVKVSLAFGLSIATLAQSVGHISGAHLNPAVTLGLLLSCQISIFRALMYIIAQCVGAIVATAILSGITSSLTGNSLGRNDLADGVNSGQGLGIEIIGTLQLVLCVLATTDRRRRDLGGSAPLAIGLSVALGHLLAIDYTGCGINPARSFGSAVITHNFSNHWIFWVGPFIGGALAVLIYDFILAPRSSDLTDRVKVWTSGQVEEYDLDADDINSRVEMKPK
Briefly: Stopped-flow water flux (Pf) in CHIP28 proteoliposomes, effect of mercurial reagents. It is filed as biochemical. On the procedure: Purified AQP1 was stored overnight at 0° C. or frozen for several days at -80° C. prior to reconstitution. Reconstitution into proteoliposomes was carried out in a final volume of 1 ml containing 60-90 μg of purified AQP 1 protein in chromatography buffer, 9 mg of bath-sonicated E. coli phospholipid, 1.25% (w/v) octyl glucoside, and 50 mM Tris-HCl (pH 7.5). The mixture was briefly blended on a vortex mixer and incubated for 20 minutes on ice. Proteoliposomes (or liposomes prepared without protein) were formed at room temperature by rapidly injecting the mixture into 25 ml of buffer A [50 mM MOPS, pH 7.5, 150 mM N-methyl-D-glucamine (NMDG) chloride also containing 10-15 mM carboxyfluorescein, 1 mM dithiothreitol, and 0.5 mM PMSF]. For the measurement of proton permeability, proteoliposomes and liposomes were loaded with buffer B (5 mM MOPS, pH 7.5, 150 mM KCl, 0.5 mM carboxyfluorescein, 1 mM dithiothreitol, and 0.5 mM PMSF). The suspension was incubated for 20 minutes at room temperature. Proteoliposomes or liposomes were collected by centrifugation for 1 hour at 123000×g in a Beckman Type 42.1 rotor at 4° C. The pellet was resuspended in 8 ml of buffer A or B and then centrifuged for 1 hour at 152000×g in a Beckman Type 50 Ti rotor. Proteoliposomes or liposomes were resuspended in 300 μl of buffer A or B and stored at 4° C. for 16-24 hours. Typically 50% (54±6%, n=5) of the AQP1 protein and 70% of the phospholipid were recovered in proteoliposomes. The lipid to protein ratio was in the range of 120:1 to 219:1. These proteoliposomes have internal volumes of 1 μl/mg of phospholipid (Ambudkar and Maloney, 1986, J. Biol. Chem. 261:10079-10086). Protein and phospholipid were measured as described by Ambudkar & Maloney (J. Biol. Chem., 1986, 261:10079-10086).
Permeability measurements. Membrane permeability measurements (Pf) were measured by exposing AQP1 proteoliposomes or control liposomes to an osmotic gradient by rapid mixing with an equal volume of another solution containing buffer A plus sufficient sucrose to increase osmolality in the mixed solutions to a value 120% of that in the original solution. This was performed with a stopped-flow fluorometer (SF.17MV, Applied Photophysics, Leatherhead, U.K.) with a measured dead time of 0.7 ms. The excitation wavelength was set at 490±1.5 nm using a 150-W mercury-xenon arc lamp and monochromator (.function.3.4 grating monochromator, both from Applied Photophysics); the emission wavelength was >515 nm using a cut-on filter (Oriel Corp., Stratford, Conn.). Extravesicular carboxyfluorescein fluorescence was completely quenched using anti-fluorescein antibody (Harris et al., 1990, Am. J. Physiol. 259:F366-F371).
Within the range of osmolalities used in these experiments, the vesicles acted as perfect osmometers, and relative volume (absolute volume divided by initial volume) was linearly related to relative fluorescence (absolute fluorescence divided by initial fluorescence). The data obtained from 8 to 16 determinations was averaged and fit to single-exponential curves using 5 software provided by Applied Photophysics (Zeidel et al., 1992, Biochemistry 31:589-596). The fitting parameters were then used to determine Pf by first applying the linear conversion from relative fluorescence to relative volume and then iteratively solving the water permeability equation using MathCAD software (MathSoft, Cambridge, Mass.):
dV(t)/dt=(Pf)(SAV)(MVW)[(Cin /V(t))-Cout ] (1)
where V(t) is relative intravesicular volume as a function of time, Pf is osmotic water permeability in centimeters per second, SAV is the vesicle surface area to volume ratio, MVW is the molar volume of water (18 cm^3 /mol), and Cin and Cout are the initial concentrations of total solute inside and outside the vesicle, respectively (Zeidel et al., 1992, Biochemistry 31:589-596).
Effect of mercural reagents.

The target of a further experiment is T2, AQP5 (Rattus norvegicus, UniProt P47864).
T2 construct: expressed in transfected cells; host or cells: Xenopus oocytes (defolliculated, stage V-VI) injected with cRNA
The experiment can be described thus: Xenopus oocyte swelling assay, AQP5-expressing oocytes treated with HgCl2 / β-mercaptoethanol. It is filed as cell-based. The following applies: for effect of HgCl2 on Pf of oocytes expressing AQP5: 1 mM HgCl2, 5 min. As to the method:
Functional expression in Oocytes--A 1-kb BamHI fragment containing the 5' untranslated sequence and the entire open reading frame of the salivary cDNA was blunt-end-ligated into the BglII site of the Xenopus expression construct pXβG, which contains the HindIII-Pst insert of pSP64T in pBS II KS (Preston et al., 1992, Science, 256:385-387). Capped cRNA was synthesized in vitro after digestion with Xbal (Preston et al., 1993). Defolliculated stage V-VI Xenopus oocytes were injected with 50 nl of water or up to 5 ng of sample cRNAs and incubated for 3 days at 18° C. in 200 mosM modified Barth's buffer. The oocytes were transferred to 70 mosM modified Barth's buffer at 21° C.; oocyte swelling was monitored by videomicroscopy, and the coefficient of osmotic water permeability (Pf) was determined (Preston et al., 1992, 1993). Uptake of [^14 C]urea or [^14 C]glycerol was measured by incubating oocytes in 200 mosM Barth's buffer for 10-20 min at 21° C. followed by washing and SDS solubilization. No increase in ion conductance was found when control oocytes were compared to RNA-injected oocytes by two electrode voltage clamps (Preston et al, 1992).
Shown are the mean values and standard deviations of 4-5 oocytes receiving no further treatment (stippled bars), oocytes incubated for 5 min. in 1 mM HgCl2 (black bars), or oocytes incubated for 5 min. in 1 mM HgCl2 followed by 30 min. in 5 mM β-mercaptoethanol (open bars). Similar to oocytes injected with AQP1 cRNA, injection of oocytes with the salivary cRNA increased the Pf by approximately 20-fold (FIG. 15). Therefore, the salivary protein qualifies as the 5th mammalian member of the Aquaporin family of water channels (Agre et al., 1993b, Am. J. Physiol., 265:F461), and the gene has been designated Aquaporin-5 (symbol AQP5) by the Genome Data Base.

T2 sequence (P47864 whole entry): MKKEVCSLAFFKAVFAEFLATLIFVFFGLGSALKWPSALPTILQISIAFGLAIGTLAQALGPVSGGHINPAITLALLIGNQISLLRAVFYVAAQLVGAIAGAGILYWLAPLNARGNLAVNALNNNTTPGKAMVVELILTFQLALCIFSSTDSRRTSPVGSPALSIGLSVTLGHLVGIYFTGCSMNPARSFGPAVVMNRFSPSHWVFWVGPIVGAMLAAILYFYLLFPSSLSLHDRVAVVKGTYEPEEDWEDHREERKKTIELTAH

Take `[Cl][Hg][Cl]` [HgCl2]: the “time to complete inhibition of Pf” value on CHIP28 (1 mM, 37° C.) is not above 5 min. The “Pf in CHIP28 proteoliposomes after mercurial” value at CHIP28 (1 mM, 37° C. (FIG. 12: pCMBS 25 minutes, HgCl2 3 minutes)) worked out at 0.007±0.003 cm/s. In addition, the “effect of HgCl2 on Pf of oocytes expressing AQP5” value on AQP5 was “comparable reduction in Pf; also recorded: reversibly inhibited”; on AQP5 (listed as Hg Cl2) it was “reversibly inhibited”.
As for `OCCS` [β-mercaptoethanol], the “reversal of inhibition by both mercurial reagents” value on CHIP28 (β-mercaptoethanol 5 mM after pCMBS or HgCl2) is given as “completely reversed”. The “Pf of AQP5 oocytes after HgCl2, effect of β-mercaptoethanol” value at AQP5 (5 mM β-mercaptoethanol 30 min. after 1 mM HgCl2) is “restored”.
